Entries after “also recorded” stand apart in the source; their conditions may differ.
Columns and labels:
[1] = target: T1, PPP1R15B-PP1 complex (Homo sapiens, UniProt Q5SWA1); experiment: SPR steady-state binding to R15B-PP1c holophosphatase on streptavidin chip; conditions: SPR
T1 construct: 340-698 of PPP1R15B were His-tagged and cloned into pMAL-c5x; made in house; host or cells: R15B fragment: E. coli BL21-Gold; BAP-PP1γ: Sf9 insect cells (baculovirus)
Method: The streptavidin coated surface was activated by 1 min injection with a solution of 50 mM NaOH and 1 M NaCl. Biotin-PP1 was diluted in the running buffer (50 mM Tris pH 7.5, 100 mM NaCl, 0.1 mM EGTA, 1 mM MnCl2, 0.05% Tween 20) and injected at approximately 300 nM concentration directly to streptavidin coated surface for 100 sec or to reach immobilization level of biotin-PP1 corresponding to ˜7000 RU. A blank immobilization was performed for one of the SA sensor chip surface to use as a reference.
With minor deviations, the same procedure and conditions were used in all binding experiments. Small molecules were stored as 50 mM stock solutions in 100% DMSO. Prior to determining binding constants, serial dilutions of either 12 or 8 concentrations of the compounds were prepared in the running buffer in a 96-well plate. […] Then, without regenerating the surface, the compound dilution series was injected onto the surface of the chip Sensorgrams were analyzed using the Biacore T200 evaluation software and the binding constants determined based on a steady-state model. Kinetic experiments are carried out using different concentrations of the compound and their respective equilibrium binding levels determined.
Surface Plasmon Resonance (SPR) was used to measure the binding affinity of compounds to the PPP1R15A/B-PP1 phosphatase complex. Biotin acceptor peptide (BAP) was fused to the N-terminus of PP1γ, which enables the biotinylation of the BAP-tagged protein in Sf9 insect cells. After purification the BAP-PP1γ protein was captured on a streptavidin sensor chip (SA-chip, GE healthcare) to a response level of ˜5.000 RU. Using controlled biotinylation enables orientated and uniform immobilization on the sensor chip surface. The PP1γ was then used to capture PPP1R15A/B and form a holophosphatase complex on the surface of the streptavidin chip. This complex can then be used to test binding of compounds. 10 μM PPP1R15A/B protein concentration was used to form the holophosphatase complex during a 80 s injection. […] After the concentration series (8 or 12 concentrations) is completed the surface is regenerated with 3 M NaCl and we can capture R15A/B again to form a fresh holophosphatase complex to measure a binding of another compound concentration series. Analysing the level of equilibrium binding as a function of concentration gives interaction affinities or steady-state binding affinity (KD).
The streptavidin coated surface was activated by 1 minute injection with a solution of 50 mM NaOH and 1 M NaCl three times at a flow rate of 10 μl/min. bio-GBZ or bio-PP1c was diluted in the running buffer (50 mM Tris pH 7.5, 100 mM NaCl, 0.1 mM EGTA, 0.05% Tween 20, 0.1% DMSO) and injected at approximately 300 nM concentration at a flow rate of 10 μl/min directly to streptavidin coated surface to reach immobilization level of bio-GBZ or bio-PP1c corresponding to ˜200 and 6000 RU, respectively. A blank immobilization was performed for one of the SA sensor chip surface to use as a reference.
With minor deviations, the same procedure and conditions were used in all binding experiments. Small molecules were stored as 50 mM stock solutions in 100% DMSO. Prior to determining binding constants, serial dilutions of either 12 or 8 concentrations of the compounds were prepared in the running buffer in a 96-well plate. […] This was followed by 1 minute stabilization period, to wash off any unspecific binding. Then, without regenerating the surface, the compound dilution series was injected onto the surface of the chip at a flow rate of 30 μl/min for 1 minute, followed by 2 minutes dissociation time. After each dilution series the surface was regenerated using 3 M NaCl for 90 seconds. […] In order to be able to correct for small variations in DMSO concentration between samples, eight solvent samples ranging from 0.06 to 8% DMSO were injected every 50th cycle. The flow cell temperature was 10° C.

[2] = test system: ATF4; experiment: Induction of ATF4 expression in cells (immunoblot); format: cell-based, human; conditions: HeLa cells, 10 μM
Method: Cells (90,000 cells/ml) were plated in a 24-well plate and treated as indicated. At the end of treatment cells were lysed in 150 μl Laemmli Buffer. Lysates were boiled at 95° C. for 5 minutes, sonicated and resolved on 4-12% Bolt Bis-Tris Plus Gels (Thermo Fisher Scientific). Proteins were transferred to the nitrocellulose membrane using the iBlot 2 system (Thermo Fisher Scientific) and analysed using the following antibodies: e-IF2α-P (44-728G, Thermo Fisher Scientific, 1:1000), e-IF2α (ab5369, Abcam, 1:1000), tubulin (T5168, Sigma-Aldrich, 1:4000), BiP (610978, BD Biosciences Pharmingen, 1:1000), ATF4 (sc-200, Santa Cruz Biotechnology, 1:500), Ppp1r15a (10449-1-AP, Proteintech, 1:1000) and Ppp1r15b (14634-1-AP, Proteintech, 1:1000). Proteins were visualized using ECL Prime (GE Healthcare).

[3] = test system: eIF2α phosphorylation; experiment: eIF2α phosphorylation during stress-recovery after DTT wash out; format: cell-based; conditions: 30 minute 1 mM DTT and wash out
Method: The inventors reasoned that a PPP1R15B inhibitor should prolong eIF2α phosphorylation following stress. To reveal this activity, it was crucial to search for conditions where PPP1R15A is not expressed, to avoid confounding effects. The inventors took advantage of the fast kinetic and reversibility of stress induction by DTT (Bertolotti et al., Nat. Cell. Biol., 2, 326-332, 2000; Jousse et al., 2003) and monitored eIF2α phosphorylation in cells following a 30 minute treatment with 1 mM DTT and a wash out. […] Thus, careful monitoring of the kinetic of eIF2α dephosphorylation in the early phase of a stress-recovery paradigm such as the one described here can be used to identify other PPP1R15B inhibitors.

[4] = test system: dorsal root ganglia culture (DRG) from PMP22 mutant mice; experiment: Myelination in DRG cultures from PMP22 mutant mice; format: cell-based, mouse; conditions: 5 nM compound, 14 days
Method: Dorsal root ganglia (DRG) dissected from wild-type or Pmp22Tr-J (PMP22mutant) (Henry et al., Neuropathol. Exp. Neurol., 42, 688-706, 1983) embryo at 13.5 or […] (E13.5) were cultured on collagen coated coverslips in neurobasal media supplemented with 4 g/l glucose, 2 mM L-glutamine, 2% B27 supplement and 50 ng/ml neuronal growth factor (NGF) for 7 days. To differentiate Schwann cells and induce myelination, the cultured DRGs were then maintained in C-media (MEM media supplemented with 4 g/l glucose, 2 mM L-glutamine, 10% FCS, 50 ng/ml NGF). The C-media was replaced every other day with freshly added 50 μg/ml ascorbic acid ±5 nM of compound of Example I and cultured for 14 days for myelination by the Schwann cells. The cultured DRGs were then fixed in 4% paraformaldehyde and immunostained with MBP (Rat Myelin basic protein, 1/250 dilution, ab73498).

T1 sequence (Q5SWA1 340-698): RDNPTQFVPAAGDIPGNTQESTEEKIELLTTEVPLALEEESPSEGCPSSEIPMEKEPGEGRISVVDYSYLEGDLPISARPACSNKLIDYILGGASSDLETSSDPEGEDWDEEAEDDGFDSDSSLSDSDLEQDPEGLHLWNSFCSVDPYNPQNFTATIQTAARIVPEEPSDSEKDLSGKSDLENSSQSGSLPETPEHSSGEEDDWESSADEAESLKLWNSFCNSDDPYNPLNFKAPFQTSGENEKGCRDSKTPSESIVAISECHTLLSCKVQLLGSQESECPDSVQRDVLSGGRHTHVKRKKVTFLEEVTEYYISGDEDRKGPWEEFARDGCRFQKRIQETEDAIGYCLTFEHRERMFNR
T1 sequence (P36873 whole entry partner, the tested form may be a part): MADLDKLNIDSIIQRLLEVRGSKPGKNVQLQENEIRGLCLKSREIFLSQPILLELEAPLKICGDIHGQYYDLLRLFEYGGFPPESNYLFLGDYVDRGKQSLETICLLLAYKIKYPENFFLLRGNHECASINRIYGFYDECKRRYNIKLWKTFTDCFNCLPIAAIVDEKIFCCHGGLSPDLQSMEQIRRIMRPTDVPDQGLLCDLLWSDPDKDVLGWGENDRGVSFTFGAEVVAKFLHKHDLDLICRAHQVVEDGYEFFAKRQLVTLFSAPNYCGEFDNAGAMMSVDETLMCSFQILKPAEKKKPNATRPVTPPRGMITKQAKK

N=C(N)N/N=C/c1c(Cl)cccc1Cl [Guanabenz, reference compound]
binding to R15B-PP1c (in words) ([1]; listed as GBZ): not or weakly; also recorded: no binding was detected

[H]/N=C(\N)NN=Cc1cccc(Cl)c1Cl [Example 1, (E)-2-(2,3-dichlorobenzylidene)hydrazine-1-carboximidamide]
binding to R15B-PP1c (in words) [1]: bound strongly and selectively | Kd ([1]; steady-state affinity): 33 nM | expression of ATF4 in cells [2]: induced expression | eIF2α phosphorylation following stress [3]: prolongs eIF2α phosphorylation | myelination (length of myelin internodes) [4]: improved myelination; also recorded: increased the length of myelin internodes

From US11364211B2, “Methods for selecting phosphatase selective and non-selective phosphatase inhibitors” (MEDICAL RESEARCH COUNCIL, priority 2015, dated 2022)
